# According to article PMC10742472, “Synthesis and Characterisation of Platinum(II) Diaminocyclohexane Complexes with Pyridine Derivatives as Anticancer Agents” (International Journal of Molecular Sciences, 2023):
# Assays:
# [1] = system: U87 (Glioblastoma); assay: MTT cytotoxicity assay, U87; type: cell-based; details: 72 h exposure
# [2] = system: HT29 (Colon); assay: MTT cytotoxicity assay, HT29; type: cell-based; details: 72 h exposure
# [3] = system: BE2-C (Neuroblastoma); assay: MTT cytotoxicity assay, BE2-C; type: cell-based; details: 72 h exposure
# [4] = system: Du145 (Prostate); assay: MTT cytotoxicity assay, Du145; type: cell-based; details: 72 h exposure
# [5] = system: MCF-7 (Breast); assay: MTT cytotoxicity assay, MCF-7; type: cell-based; details: 72 h exposure
# [6] = system: H460 (Lung); assay: MTT cytotoxicity assay, H460; type: cell-based; details: 72 h exposure
# [7] = system: SJ-G2 (Glioblastoma); assay: MTT cytotoxicity assay, SJ-G2; type: cell-based; details: 72 h exposure
# [8] = system: A431 (Skin); assay: MTT cytotoxicity assay, A431; type: cell-based; details: 72 h exposure
# [9] = system: Calf-thymus DNA (ctDNA); assay: Fluorescent intercalator displacement (FID) ctDNA binding assay with ethidium bromide; design: Ka (binding coefficient) / KF (binding constant for fluorescence) / Kq (bimolecular quenching constant) / KSV (Stern–Volmer quenching constant): unit not given here; details: 75 µM ethidium bromide, 150 µM ctDNA, pH 7.0
# Procedure: To achieve this, the fluorescent signal of a DNA intercalator, in this case, ethidium bromide (EtBr), is measured as increasing concentrations of PC are added. As the PC displaces the EtBr, the fluorescence of the mixture is diminished, and the DNA binding capacity of the complex can be calculated from the fluorescence measurement. Calf-thymus DNA (ctDNA) was used and saturated with EtBr. The change in fluorescence is monitored as the complex is titrated into this solution. Once the decrease in fluorescence plateaued, the titration was ended. […] The fluorescence was measured from 550-750 nm and excited at 480 nm. Importantly, the cuvette was inverted four times, and the solution was incubated for 3 min after the addition of […] to allow adequate time for the PCs to interact with the DNA before scanning. […] A plot of F0/F against [PC] using experimental values allowed the determination of Kq and KSV from the slope as per Equation (5). (5) […] where n is the number of ethidium ligands that are displaced per PC. It is important to note that this expression is a simplification of the true binding interaction, as it ignores the effect of EtBr on the binding equilibrium. […] A plot of Log10[(F0 - F)/F)] against Log10[PC] was used to determine KF and n from the intercept and slope, respectively.
# [10] = system: MCF10A (Breast, Normal); assay: MTT cytotoxicity assay, MCF10A non-cancer breast cells; type: cell-based; details: 72 h exposure
# [11] = system: MIA (Pancreas); assay: MTT cytotoxicity assay, MIA; type: cell-based; details: 72 h exposure
# [12] = type: physicochemical
# Procedure: Lipophilicity was calculated using RP-HPLC. A stock solution of each PC was injected at different isocratic ratios ranging from 70–90% solvent B (organic) at a flow rate of 1 mL·min^−1 [32, 33, 34]. The complexes have low solubility in water, often requiring DMSO to make concentrated solutions. Yet the LogK’ calculated using these experimental data indicated high lipophilicity, which is typical for 2+ charged complexes. […] When heat was applied, they would not precipitate out of the solution after cooling. This confirmed that a lack of persistence was the cause of the “observed” low solubility in H2O. […] Their increased lipophilicity may indicate they have the potential to be administered orally, a characteristic usually associated with Pt(IV) complexes. Other factors, such as stability and cellular absorption, would need to be considered before the potential of these Pt(II) anticancer agents could be evaluated.
# Lipophilicity was evaluated using RP-HPLC, whereby LogKw is calculated by injecting a stock solution of the PC at different isocratic ratios ranging from 70–90% solvent B (organic) at a flow rate of 1 mL·min^−1. An Agilent Technologies 1260 Infinity machine equipped with a Phenomenex Onyx™ Monolithic C18 reverse phase column (100 × 4.6 mm, 130 Å) was used to determine purity. The mobile phase comprised 0.06% TFA in water (solvent A) and 0.06% TFA in 90:10 ACN:H2O mixture (solvent B). The PC peak was eluted outside the dead zero volume time to avoid inaccurate results. The dead zero volume time was determined using potassium iodide as an external dead volume marker, with further details in the Supplementary Materials. The subsequent peaks were recorded, and K was calculated using Equation (6). (6) K=tr−t0/t0 where K is the capacity factor, tr is the retention time of the analyte, and t0 is the dead time determined using a solution of KI in the same column. At least five different isocratic ratios were used to assess each PC, and each experiment was repeated three times. LogK’ was then calculated and plotted against the concentration of ACN in the mobile phase. […] (7) LogK^′=Sφ+LogKw where S is the slope, φ is the concentration of ACN in the mobile phase, and LogKw represents the capacity factor of the compound in 100% water (Figure S49).
SMILES,GI50 [1] [µM],GI50 [2] [µM],GI50 [3] [µM],GI50 [4] [µM],GI50 [5] [µM],GI50 [6] [µM],GI50 [7] [µM],GI50 [8] [µM],Binding Stoichiometry [9],KF (binding constant for fluorescence) [9],KSV (Stern–Volmer quenching constant) [9],Ka (binding coefficient) [9],Kq (bimolecular quenching constant) [9],n (molar equivalents of PC at the point of intersection) [9],ΔFsat (change in fluorescence at the point of binding) [9],GI50 [10] [µM],GI50 [11] [µM],Lipophilicity [12]
"N.N.[Cl][Pt][Cl] [Cisplatin, reference compound]",4 ± 1.1,11 ± 1.9,0.4 ± 0.1,1.9 ± 0.2,6.5 ± 0.8,2.4 ± 0.3,7.5 ± 1.3,1.2 ± 0.1,,,,,,,,,,
"[Cl][Pt][Cl].c1ccc(C2CCCN2)nc1 (centres unmarked) [Complex 1, [Pt(PyPy)(Cl)2]]",36 ± 1.5,53 ± 1,> 50,> 50,30 ± 1,16 ± 1.7,> 50,> 50,3.61,2.69 × 10^3,1.65 × 10^3,5.05 × 10^4,0.40 × 10^3,0.91,99.1,> 50,> 50,
"[Cl][Pt][Cl].c1ccc(-c2ncc[nH]2)nc1 [Complex 2, [Pt(ImPy)(Cl)2]]",30 ± 2,34 ± 2,37 ± 4,36 ± 1.3,25 ± 2.3,4 ± 1,14 ± 0.17,42 ± 3.5,3.82,3.12 × 10^3,1.68 × 10^3,2.75 × 10^4,0.50 × 10^3,1.18,80.9,13 ± 0.6,29 ± 2.3,
"[Cl][Pt][Cl].c1ccc(-c2nc3ccccc3[nH]2)nc1 [Complex 3, [Pt(BImPy)(Cl)2]]",37 ± 2,> 50,> 50,> 50,12 ± 1.2,15 ± 3.1,42 ± 1.5,47 ± 2.5,3.40,3.72 × 10^3,2.18 × 10^3,5.10 × 10^4,0.51 × 10^3,1.24,110.3,45 ± 3.2,> 50,
"N[C@H]1CCCC[C@@H]1N.[Pt+2].c1ccc(C2CCCN2)nc1 [Complex 4a, [Pt(2-pyrrolidin-2-yl pyridine)(1S,2S-(+)-diaminocyclohexane)]^2+]",48 ± 2.6,> 50,37.5 ± 0.5,47 ± 1.7,3.2 ± 0.6,4.4 ± 0.7,17 ± 1.9,9 ± 2.3,1.48,6.20 × 10^3,4.16 × 10^3,1.06 × 10^4,0.83 × 10^3,1.83,135.0,42 ± 3,12 ± 1,2.68 ± 0.02
